Inhibition data for one compound are collected here from PMC6934184, “Selective DNA-PKcs inhibition extends the therapeutic index of localized radiotherapy and chemotherapy” (The Journal of Clinical Investigation, 2019).

The target in this test is T1, MAPK1 (ERK2) (Homo sapiens, UniProt P28482).
T1 construct: purchased Thermo Fisher Scientific (Life Technologies) SelectScreen
The test can be described thus: SelectScreen Z'LYTE. In kind it is biochemical. The method in brief: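 Percent values come from Thermo SelectScreen profiling of NU5455, combining activity and binding assays. CSF1R was run in Z'LYTE format at Km app ATP, and CAMK1 in Adapta format with ATP listed at 10.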

T1 sequence (P28482 whole entry): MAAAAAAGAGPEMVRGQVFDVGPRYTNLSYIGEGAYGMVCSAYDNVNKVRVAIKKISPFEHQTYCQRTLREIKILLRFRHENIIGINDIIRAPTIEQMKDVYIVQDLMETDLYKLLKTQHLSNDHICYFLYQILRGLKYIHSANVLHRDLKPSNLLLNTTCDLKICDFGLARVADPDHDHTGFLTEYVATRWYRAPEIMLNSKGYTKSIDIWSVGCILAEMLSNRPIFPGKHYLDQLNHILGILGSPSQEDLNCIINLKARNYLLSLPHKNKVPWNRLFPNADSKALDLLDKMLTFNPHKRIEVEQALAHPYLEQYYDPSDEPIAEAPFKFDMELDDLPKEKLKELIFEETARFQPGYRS

On to `CN(C(=O)CN1CCOCC1)c1ccc2sc3c(-c4cccc5c(=O)cc(N6CC7CCC(C6)O7)oc45)cccc3c2c1` [NU5455], for which 1 µM produced 10.1% inhibition.
